Our source for the inhibition and IC50 values is patent US20250136553A1, “ACYLSULFONAMIDE KAT6A INHIBITORS” (Olema Pharmaceuticals, Inc., priority 2023, published 2025).

In general, IC50 refers to the concentration at which inhibition is half-maximal.

human-KAT6A (MYST domain 507-778 aa), sequence (Q92794 507-778): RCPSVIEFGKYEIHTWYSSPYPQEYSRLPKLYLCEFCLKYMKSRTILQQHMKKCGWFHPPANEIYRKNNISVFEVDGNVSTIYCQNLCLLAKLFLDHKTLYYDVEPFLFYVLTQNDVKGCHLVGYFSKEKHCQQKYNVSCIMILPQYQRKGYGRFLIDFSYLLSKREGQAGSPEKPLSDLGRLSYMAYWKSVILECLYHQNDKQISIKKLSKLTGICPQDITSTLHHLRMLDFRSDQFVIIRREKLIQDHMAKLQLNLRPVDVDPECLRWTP

One test has as its target human-KAT6A (MYST domain 507-778 aa) (Homo sapiens (Human), UniProt Q92794). The test is described as follows: KAT6A biochemical assay (TR-FRET). Conditions: @ 1 μM; reported where IC50 could not be determined; read-out: Percent inhibition at specific concentration (KAT6A). The text has this: TR-FRET based methods were used for assaying compounds of the present invention for KAT6A enzyme inhibitory activity. TR-FRET is a homogeneous proximity assay where Europium-labelled anti-acetyl lysine antibody binds to the acetylated substrate labelled with biotin, which in turn binds to streptavidin-labelled APC fluorescence acceptor. Europium can transfer energy to APC in the complex and the interaction of two dye-labelled binding partners is detected by the energy transfer between a donor and an acceptor dye and the subsequent light emission by the acceptor dye. KAT6A transfer an acetyl group from acetyl CoA to lysine amino acids of histones/target proteins. […] The selected compound of the present invention and enzyme are incubated for 30 min on plate shaker at 300 rpm at 25° C. Next, 5 μL of substrate mix containing histone H4 peptide and acetyl-CoA in assay buffer is added to the plate. The final concentrations of H4 peptide and acetyl-CoA are 200 nM and 600 nM, respectively. Following 60 min reaction at 25° C. on plate shaker at 300 rpm, 5 μL of detection mix containing Europium-labelled anti-acetyl antibody and streptavidin-APC is added to the reaction wells. The plate is further incubated at 25° C. on shaker at 300 rpm and is read in TR-FRET mode (Ex:340 nm; Em: 615 nm and 665 nm) on a plate reader to achieve ˜5-7-fold activity. The percent inhibition was calculated from the ratio of the fluorescence (FL) intensities [(F665/F615)×10000) using the formula […]. IC50 values of the compounds were determined by fitting the dose-response data to sigmoidal curve fitting equation using Graph pad prism software V9.
Turning to `COc1cccc(OC)c1S(=O)(=O)NC(=O)c1ccc(Cn2cccn2)c(OC)c1OC` [Compound 41, 4-((1H-pyrazol-1-yl)methyl)-N-((2,6-dimethoxyphenyl)sulfonyl)-2,3-dimethoxybenzamide], the inhibition at 1 µM stood at 35%.

The same test, now with this note: TR-FRET; histone H4 peptide 200 nM, acetyl-CoA 600 nM; read-out: KAT6A IC50.
Regarding `COc1cc(C(=O)NS(=O)(=O)c2cc(C3CC3)ccc2OC)ccc1Cn1cccn1` [Compound 29, 4-((1H-pyrazol-1-yl)methyl)-N-((5-cyclopropyl-2-methoxyphenyl)sulfonyl)-3-methoxybenzamide], the IC50 stood at 10 nM.

With `CCc1ccc(OC)c(S(=O)(=O)NC(=O)c2ccc(Cn3cccn3)c(OC)c2)c1` [Compound 30, 4-((1H-pyrazol-1-yl)methyl)-N-((5-ethyl-2-methoxyphenyl)sulfonyl)-3-methoxybenzamide], the 50% inhibitory concentration (IC50) worked out at 11 nM.

Take `COc1cc(C(=O)NS(=O)(=O)c2ccc(C(F)(F)F)cc2OC)ccc1Cn1cccn1` [Compound 31, 4-((1H-pyrazol-1-yl)methyl)-3-methoxy-N-((2-methoxy-4-(trifluoromethyl)phenyl)sulfonyl)benzamide]: the half-maximal inhibitory concentration (IC50) worked out at 44 nM.

On to `COc1cc(C(=O)NS(=O)(=O)c2cc(C(F)(F)F)ccc2OC)ccc1Cn1cccn1` [Compound 32, 4-((1H-pyrazol-1-yl)methyl)-3-methoxy-N-((2-methoxy-5-(trifluoromethyl)phenyl)sulfonyl)benzamide], for which the half-inhibitory concentration (IC50) amounted to 16 nM.

Regarding `COc1cccc(OC)c1S(=O)(=O)NC(=O)c1ccc(Cn2cccn2)c(OC(F)(F)F)c1` [Compound 33, 4-((1H-pyrazol-1-yl)methyl)-N-((2,6-dimethoxyphenyl)sulfonyl)-3-(trifluoromethoxy)benzamide], the IC50 was found to be 10 nM.

Consider `COc1cccc(OC)c1S(=O)(=O)NC(=O)c1ccc(Cn2cccn2)c(C)c1` [Compound 34, 4-((1H-pyrazol-1-yl)methyl)-N-((2,6-dimethoxyphenyl)sulfonyl)-3-methylbenzamide], for which the concentration for half-maximal inhibition (IC50) is 36 nM.

Turning to `COc1cccc(OC)c1S(=O)(=O)NC(=O)c1ccc(Cn2cccn2)c(C(F)(F)F)c1` [Compound 35], the 50% inhibitory concentration (IC50) amounted to 30 nM.

For the compound `COc1cc(C(=O)NS(=O)(=O)c2c(OC)cccc2-n2cccn2)ccc1Cn1cccn1` [Compound 36, 4-((1H-pyrazol-1-yl)methyl)-3-methoxy-N-((2-methoxy-6-(1H-pyrazol-1-yl)phenyl)sulfonyl)benzamide], the concentration for half-maximal inhibition (IC50) was 198 nM.

On to `COc1cccc(OC)c1S(=O)(=O)NC(=O)c1ccc(Cn2cccn2)c(OC(F)F)c1` [Compound 37, 4-((1H-pyrazol-1-yl)methyl)-3-(difluoromethoxy)-N-((2,6-dimethoxyphenyl)sulfonyl)benzamide], for which the half-inhibitory concentration (IC50) turned out to be 10 nM.

In the case of `COc1cc(C(=O)NS(=O)(=O)c2cc(O)ccc2OC)ccc1Cn1cccn1` [Compound 39, 4-((1H-pyrazol-1-yl)methyl)-N-((5-hydroxy-2-methoxyphenyl)sulfonyl)-3-methoxybenzamide], the half-maximal inhibitory concentration (IC50) amounted to 24 nM.

Turning to `COc1cccc(OC)c1S(=O)(=O)NC(=O)c1ccc(Cn2cccn2)c(C2CC2)c1F` [Compound 40, 4-((1H-pyrazol-1-yl)methyl)-3-cyclopropyl-N-((2,6-dimethoxyphenyl)sulfonyl)-2-fluorobenzamide], the IC50 is 15 nM.

Turning to `COc1ccc(S(=O)(=O)NC(=O)c2ccc(Cn3cccn3)c(OC)c2)c(OC)c1` [Compound 42, 4-((1H-pyrazol-1-yl)methyl)-N-((2,4-dimethoxyphenyl)sulfonyl)-3-methoxybenzamide], the IC50 came to 8 nM.

For the compound `COc1cc(OC)c(S(=O)(=O)NC(=O)c2ccc(Cn3cccn3)c(OC)c2)cc1F` [Compound 43, 4-((1H-pyrazol-1-yl)methyl)-N-((5-fluoro-2,4-dimethoxyphenyl)sulfonyl)-3-methoxybenzamide], the concentration for half-maximal inhibition (IC50) stood at 18 nM.

For `COc1cc(OC)c(S(=O)(=O)NC(=O)c2ccc(Cn3cccn3)c(OC)c2)cc1Cl` [Compound 44, 4-((1H-pyrazol-1-yl)methyl)-N-((5-chloro-2,4-dimethoxyphenyl)sulfonyl)-3-methoxybenzamide], the half-maximal inhibitory concentration (IC50) stood at 9 nM.

As to `COc1cc(OC)c(S(=O)(=O)NC(=O)c2ccc(Cn3cccn3)c(OC)c2)cc1Br` [Compound 45, N-(5-bromo-2,4-dimethoxy-phenyl)sulfonyl-3-methoxy-4-(pyrazol-1-ylmethyl)benzamide], the IC50 was determined as 10 nM.

As to `COc1cc(C(=O)NS(=O)(=O)c2c(OC)ccc(Cl)c2OC)ccc1Cn1cccn1` [Compound 46, 4-((1H-pyrazol-1-yl)methyl)-N-((3-chloro-2,6-dimethoxyphenyl)sulfonyl)-3-methoxybenzamide], the concentration for half-maximal inhibition (IC50) was found to be 12 nM.

As to `COc1cc(OC)c(S(=O)(=O)NC(=O)c2ccc(Cn3cccn3)c(OC)c2)c(OC)c1` [Compound 47, 4-((1H-pyrazol-1-yl)methyl)-3-methoxy-N-((2,4,6-trimethoxyphenyl)sulfonyl)benzamide], the IC50 came out at 9 nM.

On to `COc1cc(C(=O)NS(=O)(=O)c2c(OC)cccc2OC)c(OC)cc1Cn1cccn1` [Compound 48, 4-((1H-pyrazol-1-yl)methyl)-N-((2,6-dimethoxyphenyl)sulfonyl)-2,5-dimethoxybenzamide], for which the IC50 was 51 nM.

For the compound `COc1cccc(OC)c1S(=O)(=O)NC(=O)c1ccc(Cn2cccn2)c(Br)c1F` [Compound 49, 4-((1H-pyrazol-1-yl)methyl)-3-bromo-N-((2,6-dimethoxyphenyl)sulfonyl)-2-fluorobenzamide], the 50% inhibitory concentration (IC50) came to 8 nM.

For the compound `COc1cc(C(=O)NS(=O)(=O)c2c(OC)cccc2OC)ccc1COc1ncccn1` [Compound 50, N-((2,6-dimethoxyphenyl)sulfonyl)-3-methoxy-4-((pyrimidin-2-yloxy)methyl)benzamide], the 50% inhibitory concentration (IC50) amounted to 96 nM.

Take `COc1cc(C(=O)NS(=O)(=O)c2ccccc2OC(F)F)ccc1Cn1cccn1` [Compound 51, 4-((1H-pyrazol-1-yl)methyl)-N-((2-(difluoromethoxy)phenyl)sulfonyl)-3-methoxybenzamide]: the IC50 worked out at 51 nM.

Regarding `COc1cc(C(=O)NS(=O)(=O)c2c(OC)cccc2OC2CC2)ccc1Cn1cccn1` [Compound 52, 4-((1H-pyrazol-1-yl)methyl)-N-((2-cyclopropoxy-6-methoxyphenyl)sulfonyl)-3-methoxybenzamide], the IC50 was 9 nM.

Consider `COc1cc(C(=O)NS(=O)(=O)c2ccccc2OCc2ccccn2)ccc1Cn1cccn1` [Compound 53, 4-((1H-pyrazol-1-yl)methyl)-3-methoxy-N-((2-(pyridin-2-ylmethoxy)phenyl)sulfonyl)benzamide], for which the concentration for half-maximal inhibition (IC50) turned out to be 31 nM.

`COc1cc(C(=O)NS(=O)(=O)c2cc(C(C)(C)O)ccc2OC)ccc1Cn1cccn1` [Compound 54, 4-((1H-pyrazol-1-yl)methyl)-N-((5-(2-hydroxypropan-2-yl)-2-methoxyphenyl)sulfonyl)-3-methoxybenzamide]: the IC50 was 3 nM.

In the case of `COc1cc(C(=O)NS(=O)(=O)c2c(OC)cccc2OC(C)C)ccc1Cn1cccn1` [Compound 55, 4-((1H-pyrazol-1-yl)methyl)-N-((2-isopropoxy-6-methoxyphenyl)sulfonyl)-3-methoxybenzamide], the half-inhibitory concentration (IC50) amounted to 11 nM.

In the case of `COc1cc(C(=O)NS(=O)(=O)c2c(OC)ccc3c2CCCC3)ccc1Cn1cccn1` [Compound 57, 4-((1H-pyrazol-1-yl)methyl)-3-methoxy-N-((2-methoxy-5,6,7,8-tetrahydronaphthalen-1-yl)sulfonyl)benzamide], the IC50 stood at 11 nM.

As to `COc1cc(C(=O)NS(=O)(=O)c2c(OC)cccc2OC)ccc1COc1nccs1` [Compound 58, N-((2,6-dimethoxyphenyl)sulfonyl)-3-methoxy-4-((thiazol-2-yloxy)methyl)benzamide], the concentration for half-maximal inhibition (IC50) was determined as 177 nM.

On to `COc1cc(C(=O)NS(=O)(=O)c2c(OC)cccc2OC)ccc1Oc1nccs1` [Compound 59, N-((2,6-dimethoxyphenyl)sulfonyl)-3-methoxy-4-(thiazol-2-yloxy)benzamide], for which the IC50 was determined as 33 nM.

For the compound `COc1cc(C(=O)NS(=O)(=O)c2c(OC)ccc(C)c2OC)ccc1Cn1cccn1` [Compound 60, 4-((1H-pyrazol-1-yl)methyl)-N-((2,6-dimethoxy-3-methylphenyl)sulfonyl)-3-methoxybenzamide], the half-inhibitory concentration (IC50) amounted to 8 nM.

`COc1cc(C(=O)NS(=O)(=O)c2c(OC)ccc(C3CC3)c2OC)ccc1Cn1cccn1` [Compound 61, 4-((1H-pyrazol-1-yl)methyl)-N-((3-cyclopropyl-2,6-dimethoxyphenyl)sulfonyl)-3-methoxybenzamide]: the 50% inhibitory concentration (IC50) is 6 nM.

`CCc1ccc(OC)c(S(=O)(=O)NC(=O)c2ccc(Cn3cccn3)c(OC)c2)c1OC` [Compound 66, 4-((1H-pyrazol-1-yl)methyl)-N-((3-ethyl-2,6-dimethoxyphenyl)sulfonyl)-3-methoxybenzamide]: the IC50 turned out to be 13 nM.

Take `CCOc1cccc(OC)c1S(=O)(=O)NC(=O)c1ccc(Cn2cccn2)c(OC)c1` [Compound 67, 4-((1H-pyrazol-1-yl)methyl)-N-((2-ethoxy-6-methoxyphenyl)sulfonyl)-3-methoxybenzamide]: the IC50 came to 11 nM.
